Laboratory results from patent US20250353867A1, “Substituted Pyridine-2,6-Bis(Phenylenephenolate) Complexes with Enhanced Solubility that are Useful as Catalyst Components for Olefin Polymerization” (EXXONMOBIL CHEMICAL PATENTS INC., priority 2022, published 2025).
Values joined by “and” are separate entries in the source; they are usually repeats but may differ in a detail not shown here. Equal values may be shown once.

Key:
[1] = Solubility of complexes in isohexane at room temperature; assay type: physicochemical; details: room temperature (20° C.-25° C.); for Solubility in isohexane: cocrystallized solvent included in formula weight; for Solubility in isohexane (wt %): cocrystallized solvent included in mass
Procedure: General considerations: Solubility studies were performed using complexes that were isolated as crystalline or microcrystalline solids. […] Complex 3, embodying the present technological advancement, was cocrystallized with 0.6 equivalents of isohexane. Complex 4, embodying the present technological advancement, was cocrystallized with 0.5 equivalents of isohexane. Solvents used were sparged with nitrogen (30-60 minutes) and dried over 3 angstrom molecular sieves. Unless stated otherwise all measurements were performed at ambient temperature (20° C.-25° C.).
General procedure: A tared vial was loaded with a small amount of the complex (actual mass recorded, typically 5-30 mg). Then a small stir bar (8 mm) was added. Solvent was then added and the mixture was stirred rapidly (1000 rpm). […] This process was repeated until either a clear solution was obtained (no visible solids or murkiness) or the vial was full. As the mixture approached homogeneity (i.e., few remaining solids observed) the volume of the solvent additions was kept small (<1 mL) to minimize the overshooting of the solvent required to achieve homogeneity. The stir bar was then removed and the mass of the mixture was measured. If a clear solution had formed then the solubility of the complex was calculated based on the mass of complex and the amount of solvent added to achieve a homogeneous solution. If the mixture remained heterogeneous (visible solids or murky), then the value reported is given as being “less than” the calculated value. Formulas used to calculate solubility are listed below. Cocrystallized solvent is included in the mass and formula weights of the complexes. The density of isohexane used in the calculations was 0.672 g/ml, and the density of the complex was assumed to be 1.0 g/ml.
Solubility (in wt %)=[100]*[(weight of complex)/(weight of solution)]
Solubility (in mM)=[10^6]*[(grams of complex)/(formula wt. of complex in g/mol)]/[(grams of solvent)/(density of solvent in g/mL)]

[2] = Propylene polymerization, catalyst activity
Excerpt: Solutions of the pre-catalysts were made using toluene (ExxonMobil Chemical-anhydrous, stored under N2) (98%) or isohexane (ExxonMobil Chemical—polymerization grade, and purified as described below). Pre-catalyst solutions were typically 0.25 mmol/L.
Activation of the pre-catalysts was either by dimethylanilinium tetrakisperfluorophenylborate (Boulder Scientific or Albemarle Corp; Act ID=A) or (hydrogenated tallow alkyl)methylammonium tetrakis(pentafluorophenyl)borate supplied as a 10 wt % solution in methylcyclohexane (Boulder Scientific; Act ID=B). Activators were typically used as a 0.25 mmol/L solution in toluene or isohexane.
Tri-n-octylaluminum (TnOAl or TNOA, Neat, AkzoNobel) was also used as a scavenger prior to introduction of the activator and pre-catalyst into the reactor. TNOA was typically used as a 5 mmol/L solution in toluene or isohexane.
Polymerizations were conducted in an inert atmosphere (N2) drybox using autoclaves equipped with an external heater for temperature control, glass inserts (internal volume of 22.5 mL), septum inlets, regulated supply of nitrogen and propylene, and equipped with disposable PEEK mechanical stirrers (800 RPM). The autoclaves were prepared by purging with dry nitrogen at 110° C. or 115° C. for 5 hours and then at 25° C. for 5 hours.
The reactor was prepared as described above, then heated to 40° C., and then purged with propylene gas at atmospheric pressure. Toluene or isohexanes, liquid propylene (1.0 mL) and scavenger (TNOA, 0.5 μmol) were added via syringe. The reactor was then brought to process temperature (70° C. or 100° C.) while stirring at 800 RPM. The activator solution, followed by the pre-catalyst solution, were injected via syringe to the reactor at process conditions. Reactor temperature was monitored and typically maintained within +/−1° C. Polymerizations were halted by addition of approximately 50 psi compressed dry air gas mixture to the autoclaves for approximately 30 seconds. The polymerizations were quenched based on a predetermined pressure loss (maximum quench value) or for a maximum of 30 minutes. The reactors were cooled and vented. The polymers were isolated after the solvent was removed in-vacuo. The actual quench time (s) is reported as quench time (s). Yields reported include total weight of polymer and residual catalyst. […] Propylene homopolymerization examples are reported in Table 2 with additional characterization in Table 3.
Polymerization results are collected in Tables 2. “Ex #” stands for example number. Example numbers starting with a “C” are comparative examples. “Cat ID” identifies the pre-catalyst used in the experiment. Corresponding numbers identifying the pre-catalyst (also referred to as pre-catalyst, catalyst, complex or compound) are located in the synthetic experimental section. T (° C.) is the polymerization temperature which was typically maintained within +/−1° C. “Yield” is polymer yield, and is not corrected for catalyst residue. “Quench time (s)” is the actual duration of the polymerization run in seconds. For propylene homopolymerization runs, quench value indicates the maximum set pressure loss (conversion) of propylene during the polymerization. Activity is reported at grams polymer per mmol of catalyst per hour.
Activator A is N,N-dimethylanilinium tetrakis(pentafluorophenyl)borate activator and activator B is (hydrogenated tallow alkyl)methylammonium tetrakis(pentafluorophenyl)borate. When activator A was used, both the pre-catalyst and activator solutions were in toluene. When activator B was used, both pre-catalyst and activator solutions were in isohexane. Small amounts of methylcyclohexane (MCH) result from activator B being supplied by the manufacturer as a 10 wt % solution in methylcyclohexane.

[3] = Activator B ((hydrogenated tallow alkyl)methylammonium tetrakis(pentafluorophenyl)borate), T 100 °C, solutions in isohexane, no toluene
[4] = Activator B ((hydrogenated tallow alkyl)methylammonium tetrakis(pentafluorophenyl)borate), T 70 °C, solutions in isohexane, no toluene

Compound	Solubility in isohexane [1] [mM]	Solubility in isohexane (wt %) [1] [wt %]	Activity (g P/mmol cat · hr) [2, 3]	Activity (g P/mmol cat · hr) ([2]; Activator A (N,N-dimethylanilinium tetrakis(pentafluorophenyl)borate), T 100 °C, catalyst and activator solutions in toluene)	Activity (g P/mmol cat · hr) [2, 4]
CCCCOc1ccc2c(c1)-c1cc(C)cc(C34CC5CC(CC(C5)C3)C4)c1[O][Zr]([CH3])([CH3])[O]c1c(cc(C)cc1C13CC4CC(CC(C4)C1)C3)-c1cc(OCCCC)ccc1-c1cccc-2n1 [Complex 3]	1.10	0.168	–	–	–
CCCCOc1ccc2c(c1)-c1cc(C(C)(C)C)cc(C34CC5CC(CC(C5)C3)C4)c1[O][Zr]([CH3])([CH3])[O]c1c(cc(C(C)(C)C)cc1C13CC4CC(CC(C4)C1)C3)-c1cc(OCCCC)ccc1-c1cccc-2n1 [Complex 4]	15.7	2.55	2,448,000 g P/mmol cat · hr and 2,638,800 g P/mmol cat · hr and 1,007,059 g P/mmol cat · hr	–	–
CCCCCCCCOc1ccc2c(c1)-c1cc(C(C)(C)C)cc(C34CC5CC(CC(C5)C3)C4)c1[O][Zr]([CH3])([CH3])[O]c1c(cc(C(C)(C)C)cc1C13CC4CC(CC(C4)C1)C3)-c1cc(OCCCCCCCC)ccc1-c1cccc-2n1 [Complex 5]	–	–	2,700,444 g P/mmol cat · hr and 1,772,923 g P/mmol cat · hr and 2,571,840 g P/mmol cat · hr	3,376,421 g P/mmol cat · hr and 2,318,545 g P/mmol cat · hr and 2,591,040 g P/mmol cat · hr	6,656,571 g P/mmol cat · hr and 5,844,800 g P/mmol cat · hr and 5,664,000 g P/mmol cat · hr
CCCCCCCCCCCCOc1ccc2c(c1)-c1cc(C(C)(C)C)cc(C34CC5CC(CC(C5)C3)C4)c1[O][Zr]([CH3])([CH3])[O]c1c(cc(C(C)(C)C)cc1C13CC4CC(CC(C4)C1)C3)-c1cc(OCCCCCCCCCCCC)ccc1-c1cccc-2n1 [Complex 6]	–	–	–	–	1,713,412 g P/mmol cat · hr and 1,940,093 g P/mmol cat · hr and 1,864,216 g P/mmol cat · hr
dimethylzirconium[2′,2′″-(pyridine-2,6-diyl)bis(3-adamantan-1-yl)-5-(tert-butyl)-[1,1′-biphenyl]-2-olate)] [Complex 2, reference compound]	–	–	2,345,000 g P/mmol cat · hr and 2,682,545 g P/mmol cat · hr and 2,225,032 g P/mmol cat · hr	–	2,069,268 g P/mmol cat · hr and 4,201,200 g P/mmol cat · hr and 3,074,182 g P/mmol cat · hr
